From patent US12637468B2, “Substituted [1,2,4]triazolo[4,3-b]pyridazines as GABAA receptor modulators” (SHANGHAI SIMR BIOTECHNOLOGY CO., LTD., priority 2019, dated 2026) come the findings set out here.

The data set can be described thus: Rat liver microsome stability (RLM) experiment. Particulars: rat liver microsomal stability, Table 4; 0.5 mg protein/mL, NADPH, 37° C., 0-45 min. In kind it is in vitro ADME. The procedure:
Effect embodiment 3 Rat liver microsome stability (RLM) experiment
Rat liver microsomes (Xenotech, item No. R1000, lot No. 1310030), 100 mM potassium phosphate buffer solution (pH 7.4), 10 mM magnesium chloride.
Compound preparation: 5 μL of compound DMSO mother liquor (10 mM) was added to 495 μL of methanol to obtain an intermediate solution with a compound concentration of 100 μM. Then 50 μL of the intermediate solution was taken and dissolved in 450 μL of potassium phosphate buffer solution to obtain a test solution with a final concentration of 10 μM.
NADPH regeneration system (concentration of isocitrate dehydrogenase 1 unit/mL).
Liver microsomes (final concentration 0.5 mg protein/mL).
Reaction termination solution: cold acetonitrile containing 100 ng/mL Tolbutamide and 100 ng/mL Labetalol as an internal standard.
• (1) Preparation of buffer solution: • Buffer solution A: 1.0 L of 0.1 M potassium phosphate buffer solution containing 1.0 mM EDTA • Buffer solution B: 1.0 L of 0.1 M dipotassium phosphate buffer solution containing 1.0 mM EDTA • Buffer solution C: 0.1 M potassium phosphate buffer, 1.0 mM EDTA, pH 7.4, titrated with 700 mL of buffer solution B and buffer solution A, monitored by pH meter. • (2) Preparation of reference substance (ketanserin) and concentration of administration solution of the test substance:
[…]: […] 10 mM DMSO reference substance stock solution and test substance stock solution were added to 190 μL of ACN, respectively. 1.5 μM administration solution (containing 0.75 mg/mL liver microsomes): […] administration solution and 18.75 μL of 20 mg/mL liver microsomes were added to 479.75 μL of buffer C on a wet ice. • (3) NADPH was added to buffer solution C to obtain a NADPH stock solution (6 mM). • (4) 30 μL of 1.5 μM administration solution (containing 0.75 mg/mL of liver microsomes) was taken on the wet ice and added to the wells of the test plate at different time points (0-, 5-, 15-, 30-, 45-min), respectively. • (5) Firstly, 135 μL of ACN containing IS was added to the wells of a 0 min test plate, and then 15 μL of the NADPH stock solution (6 mM) was added. • (6) The test plate at other time points and the NADPH stock solution were pre-heated in a 37° C. water bath for 5 minutes. • (7) 15 μL of the NADPH stock solution (6 mM) was taken and added to a pre-incubated test plate, and the reaction was started and timed. • (8) At 5 min, 15 min, 30 min and 45 min, 135 μL of CAN containing IS was added to the corresponding test plate respectively, and the test was completed. • (9) Test plates were shaken with a shaker (IKA, MTS 2/4) for 10 min (600 rpm/min) and then centrifuged for 15 min (Thermo Multifuge×3R, 5594 g). • (10) 50 μL of supernatant from each well was added to a 96-well sample plate containing 50 μL of ultrapure water (Millipore, ZMQS50F01), and the samples were analyzed by LC/MS.

SMILES strings stand for the structures.

Regarding `COc1cc2nnc(-c3cc(C)on3)n2nc1OCc1ccc2c(n1)CCN(C1COC1)C2` [Embodiment 84, 3-(7-Methoxy-6-((6-(oxetan-3-yl)-5,6,7,8-tetrahydro-1,6-naphthyridin-2-yl)methoxy)-[1,2,4]triazolo[4,3-b]pyridazin-3-yl)-5-methylisoxazole], the RLM is 0 µL/min/mg.

As to `COc1cc2nnc(-c3cc(C)on3)n2nc1OCc1ccc(C2(F)CN(C3COC3)C2)cn1` [Embodiment 128], the RLM was found to be 6 µL/min/mg.

Take `COCCCOc1ccc(COc2nn3c(-c4noc(C)n4)nnc3cc2OC)nn1` [Embodiment 129]: the RLM worked out at 14 µL/min/mg.

In the case of `COCc1ccc(COc2nn3c(-c4cc(C)on4)nnc3cc2OC)nn1` [Embodiment 151], the RLM is 1 µL/min/mg.

`COc1cc2nnc(-c3cc(C)on3)n2nc1OCc1ccc(OC2CCOCC2)nn1` [Embodiment 152] registered an RLM of 23 µL/min/mg.

The compound `COc1cc2nnc(-c3cc(C)on3)n2nc1OCc1ccc(OC2COC2)nn1` [Embodiment 153] returned an RLM of 5 µL/min/mg.

Compound `COc1cc2nnc(-c3cc(C)on3)n2nc1OCc1ccc(OC2CCOC2)nn1` (centres unmarked) [Embodiment 154] came in with an RLM of 1 µL/min/mg.

Regarding `COc1cc2nnc(-c3cc(C)on3)n2nc1OCc1ccc2c(n1)CN(C)C2` [Embodiment 160, 3-(7-Methoxy-6-((6-methyl-6,7-dihydro-5H-pyrrolo[3,4-b]pyridin-2-yl)methoxy)-[1,2,4]triazolo[4,3-b]pyridazin-3-yl)-5-methylisoxazole], the RLM stood at 6 µL/min/mg.

Consider `COCCOCc1ccc(COc2nn3c(-c4cc(C)on4)nnc3cc2OC)nn1` [Embodiment 166], for which the RLM is 0 µL/min/mg.

Compound `COc1cc2nnc(-c3cc(C)on3)n2nc1OCc1ccc2c(n1)CCN(C(CO)CO)C2` [Embodiment 185] came in with an RLM of 9 µL/min/mg.

`COc1cc2nnc(-c3cc(C)on3)n2nc1OCc1ccc2c(n1)CCN(C1CCOCC1)C2` [Embodiment 186] displayed an RLM of 22 µL/min/mg.

Compound `COc1cc2nnc(-c3cc(C)on3)n2nc1OCc1ccc2c(n1)CCN(Cc1cc(C)on1)C2` [Embodiment 187] gave an RLM of 15 µL/min/mg.

Consider `COCc1cn2nc(COc3nn4c(-c5cc(C)on5)nnc4cc3OC)ccc2n1` [Embodiment 213], for which the RLM is 10 µL/min/mg.

In the case of `COc1cc2nnc(-c3cc(C)on3)n2nc1OCc1ccc2c(n1)CN(C1CCOCC1)C2` [Embodiment 253], the RLM stood at 10 µL/min/mg.
